The values below come from US20220249586A1, “HEMP EXTRACT AND METHODS OF USE THEREOF” (ElleVet Sciences, priority 2019, published 2022).

Several values for one entry are separate records, joined by “and”; a condition that tells them apart may be missing. Equal values may be shown once.

Data set [1] is described as follows: Feline pharmacokinetics (cannabidiol in serum by LC-MS/MS). The class given is in vivo, cat. More on the design: AUC 0 −> t: concentration or dose not given beside the values. The procedure: On the first day of dosing, blood was collected for a PK analysis from 6 of the 8 cats. The most cooperative cats were selected for the PK analysis. […] Samples were placed into a red top clotting tube with no serum separator. […] The harvested serum was placed in cyrovials stored at −70° C. Each tube was labeled with the cat id, date of collection and collection time point. Samples were shipped overnight on dry ice to the Proteomics & Metabolomics Facility at Colorado State University.
200 μL of cold (−20 C) 100% Acetonitrile (spiked with 60 ng/mL of d3-CBD) was added to each sample and vortexed at room temperature for 5 minutes. 200 μL of water was added and vortexed for an additional 5 minutes. 1 ml of 100% hexane was then added to each sample and vortexed for a final 5 minutes. […] The upper hexane layer was transferred to new-labeled glass vials (˜900 uL per sample), carefully avoiding the middle and lower layers.
An 8 point standard curve of CBD was generated in matrix background using a blank serum. Concentrations ranged from 0 ng/mL 1000 ng/mL (3.2× dilution series). 50 uL of each spiked serum sample was extracted as above.
LC-MS/MS was performed on a Waters Acquity M-Class UPLC coupled to a Waters Xevo TQ-S triple quadrupole mass spectrometer. […] Flow rate was 3.0 μL/min and injection volume was 2.0 μL. […]
Each target analyte was visually inspected for retention time and peak area integration. Peak areas were extracted for target compounds detected in biological samples and normalized to the peak area of the appropriate internal standard in each sample using in-house R Script (TQS-tools). CBD concentrations were calculated in nanograms per milliliter of extract (0.06 mL) and then back calculated to nanograms per mL of serum (0.05 mL of serum).
LOD are calculated based on the standard deviation of the response (Sy) of the 0 point calibration standard (i.e., 0 ng/mL CBD as an estimate on noise) and the slope of the calibration curve (S) at levels approximating the LOD according to the formula: LOD=^3*(Sy/S). […]

Data set [2] in a line: Single-dose oral pharmacokinetics of CBD oil in beagles (serum CBD by LC-MS). It is filed as in vivo. The following applies: male, beagle, dog, median of 4 dogs, read-out: T½ elim (converted). The procedure:
An initial investigation into single-dose oral pharmacokinetics was performed with 4 beagles (3.5-7 years, male castrated, 10.7-11.9 kg). Each dog received a 2 mg/kg and an 8 mg/kg oral dosage of CBD oil, with a 2-week washout period between each experiment. The dogs were fed two hours after dosing. Physical examination was performed at 0, 4, 8 and 24 hours after dosing. Attitude, behavior, proprioception, and gait were subjectively evaluated at each time point during free running/walking and navigation around standard traffic cones (weaving). Five ml of blood was collected at time 0, 0.5, 1, 2, 4, 8, 12 and 24 hours after oil administration. Blood samples were obtained via jugular venipuncture and transferred to a coagulation tube for 20 minutes. […]
From the UHPLC-QQQ-MS data, peak areas were extracted for CBD detected in biological samples and normalized to the peak area of the internal standard CBD-d3, in each sample using Skyline as well as an in-house R Script (www.r-project.org). CBD concentrations were calculated to nanograms per mL of serum as determined by the line of regression of the standard curve (r2=0.9994, 0-1000 ng/mL). For this assay, the limits of detection (LOD) and limits of quantification (LOQ) represent the lower limits of detection and quantification for each compound in the matrix of this study. […]

As for `C=C(C)[C@@H]1CCC(C)=C[C@H]1c1c(O)cc(CCCCC)cc1O` [Cannabidiol, cannabidiol], in data set [1] (individual cats, 0 time to last collection [24 hr]), the “AUC 0 −> t” value was 265.0 ng·h/mL and 54.2 ng·h/mL and 42.4 ng·h/mL and 212.2 ng·h/mL and 125.0 ng·h/mL and 134.2 ng·h/mL and 60.2 ng·h/mL. This compound had a Cmax in data set [1] (serum, po, 2 mg/kg) of 47.6 ng/mL. Besides, the half-life was 1.2 h in data set [1] (serum, po, 2 mg/kg, individual cats, oral 2/mg/kg cannabidiol in capsule form, read-out: T½ el (converted)); 4.2 h in data set [2] (2 mg/kg single oral dose); 4.2 h in data set [2] (8 mg/kg single oral dose).

A word on the Cmax: it is the peak of the concentration-time curve.
